Assay results from patent US8173689B2 (Novartis AG, priority 2006, dated 2012).
Read-outs that look alike come from different tables or passages of the source.

Experiments:
[1] = target: T1, cytoplasmic domain of the human CSF-1R (Homo sapiens, UniProt P07333); experiment: In vitro kinase assay for colony stimulating factor-1 receptor (AlphaScreen); type: biochemical; conditions: tested at about 1 μM, read-out: CSF-1R percent inhibition
T1 construct: Recombinant protein corresponding to the cytoplasmic domain of the human CSF-1R; purchased Invitrogen Corporation, Carlsbad, Calif; PV3249
T1 sequence (P07333 539-972 limits assumed): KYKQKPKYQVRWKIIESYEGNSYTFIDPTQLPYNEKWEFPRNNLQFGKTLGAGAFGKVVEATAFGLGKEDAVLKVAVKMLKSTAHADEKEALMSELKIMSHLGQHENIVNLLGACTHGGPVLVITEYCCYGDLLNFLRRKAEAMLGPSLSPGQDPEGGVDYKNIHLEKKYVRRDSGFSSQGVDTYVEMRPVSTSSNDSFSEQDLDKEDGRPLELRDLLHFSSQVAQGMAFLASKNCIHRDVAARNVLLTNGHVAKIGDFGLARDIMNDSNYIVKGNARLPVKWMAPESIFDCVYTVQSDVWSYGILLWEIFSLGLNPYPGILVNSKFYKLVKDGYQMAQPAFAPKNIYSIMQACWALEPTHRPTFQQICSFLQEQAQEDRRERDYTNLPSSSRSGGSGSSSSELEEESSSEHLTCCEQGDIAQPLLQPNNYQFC
Procedure, shortened: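 At a low ATP level of 1 μM, phosphate transfer by the cytoplasmic-domain kinase (4 nM) was quantified with an AlphaScreen anti-phosphotyrosine bead pair.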

kinase domain of cKIT = target: T2, kinase domain of cKIT (Homo sapiens, UniProt P10721); experiment: Inhibition of cKIT kinase signaling in an in vitro biochemical assay (alphascreen); conditions: tested at about 1 μM, read-out: cKit percent inhibition
T2 construct: The kinase domain of cKIT was assayed in 50 mM Hepes; purchased Upstate 14-559

[2] = system: MNFS60 (murine AML cells); experiment: Cell viability assay in MCSF dependent MNFS60 cells (Cell Titer Glo); type: cell-based; conditions: Mus musculus, tested at about 1 μM, read-out: M-NFS-60 CP percent inhibition
Procedure, shortened: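 3-fold DMSO dilution series (500× stocks); MCSF 10 ng/ml final; 72 hrs, 37° C., 5% CO2; CellTiter-Glo read-out; n=3; EC50 fitted.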

kinase domain of PDGFRβ = target: T3, kinase domain of PDGFRβ (Homo sapiens, UniProt P09619); experiment: Inhibition of PDGFRb kinase signaling in an in vitro biochemical assay (alphascreen); conditions: tested at about 1 μM, read-out: PDGFRβ percent inhibition
T3 construct: The kinase domain of PDGFRβ was assayed in 50 mM Hepes; purchased Invitrogen P3082
T3 sequence (P09619 600-962 limits assumed): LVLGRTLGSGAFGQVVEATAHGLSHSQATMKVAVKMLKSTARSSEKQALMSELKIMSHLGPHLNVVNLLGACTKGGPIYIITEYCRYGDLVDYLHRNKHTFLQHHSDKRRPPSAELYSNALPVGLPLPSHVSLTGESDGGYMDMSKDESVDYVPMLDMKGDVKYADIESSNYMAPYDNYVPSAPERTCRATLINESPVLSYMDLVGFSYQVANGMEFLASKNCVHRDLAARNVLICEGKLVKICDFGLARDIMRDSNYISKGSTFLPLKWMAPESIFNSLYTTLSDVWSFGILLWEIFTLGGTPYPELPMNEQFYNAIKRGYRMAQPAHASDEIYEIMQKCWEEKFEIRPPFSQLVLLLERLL

T2 sequence (P10721 589-937 limits assumed): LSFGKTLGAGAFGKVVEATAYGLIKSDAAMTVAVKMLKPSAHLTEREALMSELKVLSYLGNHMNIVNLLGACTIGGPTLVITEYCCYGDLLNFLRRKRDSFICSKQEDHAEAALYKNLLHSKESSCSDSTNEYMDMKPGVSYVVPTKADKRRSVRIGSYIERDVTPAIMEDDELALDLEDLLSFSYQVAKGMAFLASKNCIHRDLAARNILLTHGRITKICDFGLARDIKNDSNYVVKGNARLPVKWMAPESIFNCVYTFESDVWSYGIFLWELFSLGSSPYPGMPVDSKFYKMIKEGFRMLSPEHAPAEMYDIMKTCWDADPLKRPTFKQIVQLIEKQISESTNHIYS

| inhibition at 1 µM ([1]; compounds of Table 3) [%] | inhibition at 1 µM (kinase domain of cKIT; compounds of Table 3) [%] | inhibition at 1 µM (kinase domain of PDGFRβ; compounds of Table 3) [%] | inhibition at 1 µM [1] [%] | inhibition at 1 µM (kinase domain of cKIT) [%] | inhibition at 1 µM (kinase domain of PDGFRβ) [%] | Compound | inhibition at 1 µM ([2]; compounds of Table 3) [%] | inhibition at 1 µM ([2]; MNFS60 cells) [%] | inhibition at 1 µM ([2]; MCSF dependent MNFS60 cells) [%] |
| --- | --- | --- | --- | --- | --- | --- | --- | --- | --- |
| 98 | 22 | 19 | – | – | – | O[C@@H]1CCCC[C@H]1Nc1nc2ccc(Oc3ccncc3-c3cccnc3)cc2s1 [Example 190] | 5 | – | – |
| – | – | – | 94 | 74 | 0 | CNC(=O)c1cc(Oc2ccc3nc(NCCc4ccccc4)oc3c2)ccn1 [Compound 61, 4-(2-Phenylethylamino-benzo-oxazol-6-yloxy)-pyridine-2-carboxylic acid methylamide] | – | 35 | – |
| – | – | – | 100 | 98 | 79 | Cn1cc(-c2cc(Oc3ccc4nc(N[C@H](CO)Cc5ccccc5)sc4c3)ccn2)cn1 [Example 351, (S)-2-(6-(2-(1-methyl-1H-pyrazol-4-yl)pyridin-4-yloxy)benzo[d]thiazol-2-ylamino)-3-phenylpropan-1-ol] | – | – | 100 |
| – | – | – | 99 | 7 | 0 | CCOC(=O)C1(CNc2nc3ccc(Oc4ccnc(C(=O)NC)c4)cc3o2)CCCCC1 [Compound 75, 1-{[6-(2-Methylcarbamoyl-pyridin-4-yloxy)-benzooxazol-2-ylamino]-methyl}-cyclohexane-carboxylic acid ethyl ester] | – | 0 | – |
| 100 | 100 | 82 | – | – | – | FC(F)Oc1ccccc1CNc1nc2ccc(Oc3ccnc4ccccc34)cc2s1 [Example 246, N-(2-(difluoromethoxy)benzyl)-6-(quinolin-4-yloxy)benzo[d]thiazol-2-amine] | 100 | – | – |
| – | – | – | 99 | 11 | 2 | CNC(=O)c1cc(Oc2ccc3nc(NCc4c(Cl)cccc4Cl)sc3c2)ccn1 [Compound 158, 4-[2-(2,6-Dichloro-benzylamino)-benzothiazol-6-yloxy]-pyridine-2-carboxylic acid methylamide] | – | 1 | – |
| – | – | – | 99 | 13 | 12 | CNC(=O)c1cc(Oc2ccc3nc(NCCc4ccccn4)sc3c2)ccn1 [Example 314, N-methyl-4-(2-(2-(pyridin-2-yl)ethylamino)benzo[d]thiazol-6-yloxy)picolinamide] | – | – | 20 |
| – | – | – | 100 | 34 | 31 | CNC(=O)c1cc(Oc2ccc3nc(Nc4cccc(CCN5CCOCC5)c4)oc3c2)ccn1 [Compound 74, 4-{2-[3-(2-Morpholin-4-yl-ethyl)-phenylamino]-benzo-oxazol-6-yloxy}-pyridine-2-carboxylic acid methylamide] | – | 14 | – |
| – | – | – | 100 | 27 | 0 | CNC(=O)c1cc(Oc2ccc3nc(NCc4ccc(F)cc4F)oc3c2)ccn1 [Compound 71, 4-[2-(2,4-Difluoro-benzylamino)-benzooxazol-6-yloxy]-pyridine-2-carboxylic acid methylamide] | – | 11 | – |
| – | – | – | 100 | 100 | 91 | Cn1cc(-c2cc(Oc3ccc4nc(N[C@H]5c6ccccc6C[C@H]5O)sc4c3)ccn2)cn1 [Example 350, (1S,2R)-1-(6-(2-(1-methyl-1H-pyrazol-4-yl)pyridin-4-yloxy)benzo[d]thiazol-2-ylamino)-2,3-dihydro-1H-inden-2-ol] | – | – | 100 |
| 99 | 33 | 8 | – | – | – | O[C@@H]1CCCC[C@H]1Nc1nc2ccc(Oc3ccnc(-c4cncnc4)c3)cc2s1 [Example 285, (1R,2R)-2-(6-(2-(pyrimidin-5-yl)pyridin-4-yloxy)benzo[d]thiazol-2-ylamino)cyclohexanol] | 0 | – | – |
| – | – | – | 99 | 98 | 41 | CNC(=O)c1cc(Oc2cc(C)c3nc(NCC4CCCCC4)sc3c2)ccn1 [Example 374, 4-(2-(cyclohexylmethylamino)-4-methylbenzo[d]thiazol-6-yloxy)-N-methylpicolinamide] | – | – | 3 |
| – | – | – | 99 | 0 | 0 | CNC(=O)c1cc(Oc2ccc3nc(NC4CC=CCC4)oc3c2)ccn1 (stereo not drawn) [Compound 70, 4-[2-(Cyclohex-3-enylamino)-benzooxazol-6-yloxy]-pyridine-2-carboxylic acid methylamide] | – | 0 | – |
| – | – | – | 99 | 2 | 0 | CNC(=O)c1cc(Oc2ccc3nc(N[C@H]4CCCC[C@H]4NS(C)(=O)=O)sc3c2)ccn1 [Example 300, N-methyl-4-(2-((1S,2R)-2-(methylsulfonylamido)cyclo-hexylamino)benzo[d]thiazol-6-yloxy)picolinamide] | – | – | 14 |
| – | – | – | 99 | 6 | 0 | CNC(=O)c1cc(Oc2ccc3nc(NCC4CCCN(C(C)=O)C4)sc3c2)ccn1 (stereo not drawn) [Example 306, 4-(2-((1-acetylpiperidin-3-yl)methylamino)benzo[d]thiazol-6-yloxy)-N-methylpicolinamide] | – | – | 48 |
| 96 | 23 | 2 | – | – | – | CNC(=O)c1cc(Oc2ccc3nc(NCCc4cnccn4)sc3c2)ccn1 [Compound 148] | 1 | – | – |
| 100 | 100 | 37 | – | – | – | CNC(=O)c1cc(Oc2ccc3nc(NCc4ccccc4)sc3c2)ccn1 [Compound 138] | 105 | – | – |
| – | – | – | 100 | 9 | 30 | CNC(=O)c1cc(Oc2ccc3nc(NCc4c(Cl)cccc4OC)oc3c2)ccn1 [Compound 121, 4-[2-(2-Chloro-6-methoxy-benzylamino)-benzooxazol-6-yloxy]-pyridine-2-carboxylic acid methylamide] | – | 17 | – |
| – | – | – | 100 | 65 | 0 | CNC(=O)c1cc(Oc2ccc3nc(NCc4ccccc4Br)oc3c2)ccn1 [Compound 72, 4-[2-(2-Bromo-benzylamino)-benzooxazol-6-yloxy]-pyridine-2-carboxylic acid methylamide] | – | 48 | – |
| 100 | 9 | 12 | – | – | – | Cn1nccc1-c1cc(Oc2ccc3nc(N[C@@H]4CCCC[C@H]4O)sc3c2)ccn1 [Example 265, (1R,2R)-2-(6-(2-(1-methyl-1H-pyrazol-5-yl)pyridin-4-yloxy)benzo[d]thiazol-2-ylamino)cyclohexanol] | 32 | – | – |
| – | – | – | 100 | 100 | 99 | CC(C)C[C@@H](CO)Nc1nc2ccc(Oc3ccnc(-c4cnn(C)c4)c3)cc2s1 [Example 358, (S)-4-methyl-2-(6-(2-(1-methyl-1H-pyrazol-4-yl)pyridin-4-yloxy)benzo[d]thiazol-2-ylamino)pentan-1-ol] | – | – | 100 |
| – | – | – | 100 | 100 | 100 | Cn1cc(-c2cc(Oc3ccc4nc(N[C@H](CO)C5CCCCC5)sc4c3)ccn2)cn1 [Example 353, (S)-2-cyclohexyl-2-(6-(2-(1-methyl-1H-pyrazol-4-yl)pyridin-4-yloxy)benzo[d]thiazol-2-ylamino)ethanol] | – | – | 100 |
| 100 | 26 | 0 | – | – | – | O[C@@H]1CCCC[C@H]1Nc1nc2ccc(Oc3ccncc3Br)cc2s1 [Example 224, (1R,2R)-2-(6-(3-bromopyridin-4-yloxy)benzo[d]thiazol-2-ylamino)cyclohexanol] | 33 | – | – |
| 100 | 57 | 20 | – | – | – | N#Cc1ccc(-c2cc(Oc3ccc4nc(N[C@@H]5CCCC[C@H]5O)sc4c3)ccn2)cn1 [Example 287, 4-(2-((1R,2R)-2-hydroxycyclohexylamino)benzo[d]thiazol-6-yloxy)-2,3'-bipyridine-6'-carbonitrile] | 35 | – | – |
